Reference: patent publication US6967034B2, “Herbal-based composition for treating acute and chronic myeloid leukemia” (Council of Scientific and Industrial Research, priority 2002, dated 2005)

Experiments:
Assay type in all cases: cell-based, human
[1] = test system: CD33+ myeloid leukemia cells; test: Incubation of PBMC of CD33+ myeloid leukemia patients, viability count and flow cytometry; settings: purified compound, varied concentrations, 48 h
Method: Preparation of peripheral blood mononuclear cells (PBMC) from CD33+ myeloid leukemia patients ex vivo blood.
(§1) Whole blood (10 ml) was drawn from a previously diagnosed CD33+ myeloid leukemic patient and mononuclear cells were separated by Ficoll/hypaqal density gradient centrifugation.
Incubation of PBMC of myeloid leukemia patients with crude Piper betel extract. PBMC (2×10^6/ml) of myeloid leukemia patients were incubated with Piper betel extract (10.0 mg/ml) for 48 hours and then washed and counted for viability.
Incubation of PBMC of myeloid leukemia patients with fraction E in vitro. PBMC (2×10^6/ml) of myeloid leukemia patients were incubated with varied concentrations of fraction E for 48 hours. Cells were then washed and counted for viability.
(§2) Incubation of PBMC of myeloid leukemia patients with purified compound 3-O-p-coumaryl quinic acid in vitro. PBMC (2×10^6/ml) of myeloid leukemia patients were incubated with varied concentrations of purified compound for 48 h. Cells were then washed, and counted for viability.
Flow cytometry of myeloid leukemia cells. Myeloid leukemia cells before and after in vitro incubation with crude Piper betel extract, purified fraction E or purified 3-O-p-coumaryl quinic acid were marked with anti-CD33-FITC and anti-CD13-PE monoclonal antibodies. Cells were then analysed in a flow cytometer (FACS Calibur, Bection Dickinson, USA)

[2] = test system: AML cells; test: Growth inhibition of AML cells in vitro; settings: 48 h
Method: as §1, §2
Incubation of myeloid leukemic cells with fractions having retention time 3.60 (fraction-1) and 24.00 min (fraction 9). PBMC of myeloid leukemic patients were incubated with above-mentioned fractions, alone or in combination of the two for 48 HRs. Cells were then washed and counted for viability.

[3] = test system: CML cells; test: Growth inhibition of CML cells in vitro; settings: 48 h
Method: as §1, §2

## O=C(C=Cc1ccc(O)cc1)OC1CC(O)(C(=O)O)CC(O)C1O (stereo not drawn) [3-O-p-coumaryl quinic acid]
[1]
  Destruction of PBMC of CD33+ myeloid leukemia patients (both AML and CML): destroyed
[2]; 100 μg/ml
  Percent inhibition of growth: 53.37%
[2]; 600 μg/ml
  Percent inhibition of growth: 100.00%
[2]; single fraction, dose 100 μg/ml
  % Inhibition (percent inhibition of growth): 54.00%
[3]; 100 μg/ml
  Percent inhibition of growth: 2.53%
[3]; 600 μg/ml
  Percent inhibition of growth: 79.50%
